{"source": "patent US20110294772A1", "about": "“USE OF CYCLOSQUARAMIDE COMPOUNDS AS ANTI-TUMOUR AGENTS” (priority 2008, published 2011)", "type_in_all_cases": "cell-based, human", "key": {"[1]": {"system": "Jeko-1", "assay": "cell viability assay", "method": "The IC50 in cell viability assays were determined for some of the macrocycles prepared in Jeko-1 (B-cell lymphoma (MCL) type cells. With a total incubation period of 48 h."}, "[2]": {"system": "Granta-519", "assay": "cell viability assay", "conditions": "Granta-519 B-cell lymphoma (MCL), 48 h, with respect to untreated control cells"}, "[3]": {"system": "786-O (Renal)", "assay": "NCI60 panel IC50", "method": "(§1) On the other hand, the values of IC50 were determined in the panel of NCl60 cell lines for compound 10.\n(§2) A total of 2 independent experiments were carried out with assays in triplicate for the compound and cell line. All those assays where an IC50 value was not reached in the highest concentration of 1E-05 M are represented by “>1E-05”. In these cases, the standard deviation cannot be calculated and for that reason it is calculated as “-”."}, "[4]": {"system": "HCT-15 (Colon)", "assay": "NCI60 panel IC50", "method": "as §1, §2"}, "[5]": {"system": "HT-29 (Colon)", "assay": "NCI60 panel IC50", "method": "as §1, §2"}, "[6]": {"system": "LOX-IMVI (Melanoma)", "assay": "NCI60 panel IC50", "method": "as §1, §2"}, "[7]": {"system": "NCI-H522 (Lung)", "assay": "NCI60 panel IC50", "conditions": "lung NCl-H522", "method": "as §1, §2"}, "[8]": {"system": "OVCAR-4 (Ovarian)", "assay": "NCI60 panel IC50", "method": "as §1, §2"}, "[9]": {"system": "OVCAR-5 (Ovarian)", "assay": "NCI60 panel IC50", "method": "as §1, §2"}, "[10]": {"system": "OVCAR-8 (Ovarian)", "assay": "NCI60 panel IC50", "method": "as §1, §2"}, "[11]": {"system": "SK-MEL-28 (Melanoma)", "assay": "NCI60 panel IC50", "method": "as §1, §2"}}, "data": [{"smiles": "CN1CCCNc2c(c(=O)c2=O)NCCCN(C)CCCNc2c(c(=O)c2=O)NCCCN(C)CCCNc2c(c(=O)c2=O)NCCCN(C)CCCNc2c(c(=O)c2=O)NCCCN(C)CCCNc2c(c(=O)c2=O)NCCC1", "note": "[Compound 10]", "values": [{"measurement": "IC50", "setting": "[1]; Homo sapiens, JeKo-1, 48 h, cell viability, total incubation period 48 h, read-out: IC50 (μM) against Jeko-1 cells", "result": 30.7, "unit": "µM"}, {"measurement": "% Cell viability", "setting": "[1]; Jeko-1 B-cell lymphoma (MCL), 48 h, with respect to untreated control cells", "result": 46, "unit": "%"}, {"measurement": "% Cell viability", "setting": "[2]", "result": 58, "unit": "%"}, {"measurement": "IC50", "setting": "[3]; Homo sapiens, 786-0, 786-O (Renal), NCI60 panel, highest concentration 1E-05 M", "result": "> 10", "unit": "µM"}, {"measurement": "sensitivity of the line to the tested compound", "setting": "[3]; renal 786-O", "result": "resistant"}, {"measurement": "IC50", "setting": "[4]; Homo sapiens, HCT-15 (Colon), NCI60 panel, highest concentration 1E-05 M", "result": "> 10", "unit": "µM"}, {"measurement": "sensitivity of the line to the tested compound", "setting": "[4]; colon HCTI5", "result": "resistant"}, {"measurement": "IC50", "setting": "[5]; Homo sapiens, HT-29 (Colon), NCI60 panel, highest concentration 1E-05 M", "result": "> 10", "unit": "µM"}, {"measurement": "sensitivity of the line to the tested compound", "setting": "[5]; colon HT-29", "result": "resistant"}, {"measurement": "IC50", "setting": "[6]; Homo sapiens, LOX-IMVI (Melanoma), NCI60 panel, highest concentration 1E-05 M", "result": "> 10", "unit": "µM"}, {"measurement": "sensitivity of the line to the tested compound", "setting": "[6]; melanoma LOX-IMVI", "result": "resistant"}, {"measurement": "sensitivity of the line to the tested compound", "setting": "[7]", "result": "resistant"}, {"measurement": "IC50", "setting": "[8]; Homo sapiens, OVCAR-4 (Ovarian), NCI60 panel, highest concentration 1E-05 M", "result": "> 10", "unit": "µM"}, {"measurement": "sensitivity of the line to the tested compound", "setting": "[8]; ovarian OVCAR-4", "result": "resistant"}, {"measurement": "IC50", "setting": "[9]; Homo sapiens, OVCAR-5 (Ovarian), NCI60 panel, highest concentration 1E-05 M", "result": "> 10", "unit": "µM"}, {"measurement": "sensitivity of the line to the tested compound", "setting": "[9]; ovarian OVCAR-5", "result": "resistant"}, {"measurement": "IC50", "setting": "[10]; Homo sapiens, OVCAR-8 (Ovarian), NCI60 panel, highest concentration 1E-05 M", "result": "> 10", "unit": "µM"}, {"measurement": "sensitivity of the line to the tested compound", "setting": "[10]; ovarian OVCAR-8", "result": "resistant"}, {"measurement": "IC50", "setting": "[11]; Homo sapiens, SK-MEL-28 (Melanoma), NCI60 panel, highest concentration 1E-05 M", "result": "> 10", "unit": "µM"}, {"measurement": "sensitivity of the line to the tested compound", "setting": "[11]; melanoma SK-MEL-28", "result": "resistant"}]}]}
